We go through 7 compounds from patent publication US20240190889A1, “NEW CYCLOPENTA-THIENO-DIAZEPINE DERIVATIVES AS GABA A GAMMA1 POSITIVE ALLOSTERIC MODULATORS” (Hoffmann-La Roche Inc., priority 2021, published 2024).

pKi: −log10 of the molar value. Read-outs that look alike come from different tables or passages of the source.

The target in experiment [1] is human GABAA α2β2γ1 receptor (Homo sapiens (Human), UniProt P47869+Q8N1C3). As to the kind of experiment: Radioligand binding assay, competition for [3H]RO7239181, γ1-containing GABAA subtypes.
Experiment [2] has as its target human GABAA α1β3γ2 receptor (Homo sapiens (Human), UniProt P14867+P18507). The experiment is described as follows: Radioligand binding assay, competition for [3H]Flumazenil, γ2-containing GABAA subtypes. To be noted: for γ2/γ1 Selectivity Ratio: Ki α1β3γ2 (nM)/Ki α2β2γ1 (nM); for LogSel: Log[Ki α1β3γ2 (nM)/Ki α2β2γ1 (nM)].
Experiment [3] addresses h-GABA-A α2β2γ1 receptor expressed in Xenopus laevis oocytes (Homo sapiens (Human), UniProt P47869+Q8N1C3). As to the kind of experiment: Two-electrode voltage clamp electrophysiology in Xenopus oocytes expressing GABAA receptors. The class given is cell-based. The settings on record: for Efficacy (GABA)%: % modulation of GABA EC20 = 100*(Fold increase-1), compound at 30-fold Ki α2β2γ1; for Fold increase h-GABA-A α2β2γ1 oocyte @ 30-fold Ki: GABA EC20, test compound at approx. 30-fold its Ki α2β2γ1, at least 3 oocytes.

The mark [4] stands for this setting: read-out: Ki h-GABAA α2β2γ1, membranes from HEK293F cells, [3H]RO7239181 20-30 nM, mean of two determinations.
Setting [5] is: HEK293F cell membranes, [3H]Flumazenil 1 nM, mean of two determinations, read-out: Ki h-GABAA α1β3γ2.

Turning to `Cc1nnc2n1-c1sc3c(c1C(c1c(F)cccc1F)=N[C@H]2C)C[C@@H](C)C3` [Example 15, (7S,13R)-9-(2,6-difluorophenyl)-3,7,13-trimethyl-16-thia-2,4,5,8-tetrazatetracyclo [8.6.0.02,6.011,15]hexadeca-1(10),3,5,8,11(15)-pentaene], the pKi in experiment [1] is 8.20. Also, the pKi in experiment [1] (setting [4]) is 8.20. Further, in experiment [2], the pKi was 7.00, the “γ2/γ1 Selectivity Ratio” value is given as 16.1 and the LogSel is on record as 1.21. Moreover, in experiment [3], the “Efficacy (GABA)%” value amounted to 45% and the “Fold increase h-GABA-A α2β2γ1 oocyte @ 30-fold Ki” value worked out at 1.45.

In experiment [1], `Cc1nc2n(n1)-c1sc3c(c1C(c1c(F)cccc1F)=N[C@H]2C)C[C@@H](C(F)F)C3` [Example 16, (7S,13R)-13-(difluoromethyl)-9-(2,6-difluorophenyl)-4,7-dimethyl-16-thia-2,3,5,8-tetrazatetracyclo [8.6.0.02,6.011,15]hexadeca-1(10),3,5,8,11(15)-pentaene] gave a pKi of 8.64. Further, the pKi in experiment [1] (setting [4]) is 8.64. In addition, in experiment [2], the pKi was 6.35, the “γ2/γ1 Selectivity Ratio” value is reported as 191.1 and the LogSel amounted to 2.28. In experiment [3], the “Efficacy (GABA)%” value turned out to be 32% and the “Fold increase h-GABA-A α2β2γ1 oocyte @ 30-fold Ki” value turned out to be 1.32.

For `Cc1nc2n(n1)-c1sc3c(c1C(c1c(F)cccc1F)=N[C@H]2C)C[C@H](C(F)F)C3` [Example 17, (7S,13S)-13-(difluoromethyl)-9-(2,6-difluorophenyl)-4,7-dimethyl-16-thia-2,3,5,8-tetrazatetracyclo [8.6.0.02,6.011,15]hexadeca-1(10),3,5,8,11(15)-pentaene], the pKi in experiment [1] is 7.24. Moreover, the pKi in experiment [1] (setting [4]) was 7.24. In addition, in experiment [2], the negative-log Ki (pKi) was 5.18, the “γ2/γ1 Selectivity Ratio” value came out at 114.8 and the LogSel stood at 2.06. Moreover, in experiment [3], the “Efficacy (GABA)%” value worked out at 25% and the “Fold increase h-GABA-A α2β2γ1 oocyte @ 30-fold Ki” value is listed as 1.25.

In the case of `C[C@@H]1N=C(c2c(F)cccc2F)c2c(sc3c2C[C@@H](C(F)F)C3)-n2nc(C(=O)NCCO)nc21` [Example 18, (7S,13R)-13-(difluoromethyl)-9-(2,6-difluorophenyl)-N-(2-hydroxyethyl)-7-methyl-16-thia-2,3,5,8-tetrazatetracyclo [8.6.0.02,6.011,15]hexadeca-1(10),3,5,8,11(15)-pentaene-4-carboxamide], in experiment [1], the pKi was 8.24. Besides, the pKi in experiment [1] (setting [4]) was 8.24. For the same compound, in experiment [2] (setting [5]), the pKi is 6.21. Besides, in experiment [2], the “γ2/γ1 Selectivity Ratio” value worked out at 107.2 and the LogSel came to 2.03. In experiment [3], the “Efficacy (GABA)%” value is listed as 65% and the “Fold increase h-GABA-A α2β2γ1 oocyte @ 30-fold Ki” value was found to be 1.65.

In the case of `C[C@@H]1N=C(c2c(F)cccc2F)c2c(sc3c2C[C@@H](C(F)F)C3)-n2nc(C(=O)N3CCS(=O)(=O)CC3)nc21` [Example 19, [(7S,13R)-13-(difluoromethyl)-9-(2,6-difluorophenyl)-7-methyl-16-thia-2,3,5,8-tetrazatetracyclo [8.6.0.02,6.011,15]hexadeca-1(10),3,5,8,11(15)-pentaen-4-yl]-(1,1-dioxo-1,4-thiazinan-4-yl)methanone], the pKi is 8.27 in experiment [1], 8.27 in experiment [1] (setting [4]) and 6.06 in experiment [2] (setting [5]). The “γ2/γ1 Selectivity Ratio” value in experiment [2] was found to be 162.3. The LogSel in experiment [2] is 2.21. Further, in experiment [3], the “Efficacy (GABA)%” value amounted to 43%. Besides, the “Fold increase h-GABA-A α2β2γ1 oocyte @ 30-fold Ki” value in experiment [3] was found to be 1.43.

The compound `Cc1cnc2n1-c1sc3c(c1C(c1c(F)cccc1F)=N[C@H]2C)C[C@@H](C(F)F)C3` [Example 20, (7S,13R)-13-(difluoromethyl)-9-(2,6-difluorophenyl)-3,7-dimethyl-16-thia-2,5,8-triazatetracyclo [8.6.0.02,6.011,15]hexadeca-1(10),3,5,8,11(15)-pentaene] had a negative logarithm of the Ki (pKi) in experiment [1] of 8.65. Also, the pKi in experiment [1] (setting [4]) was 8.65. In experiment [2], the pKi was 6.72, the “γ2/γ1 Selectivity Ratio” value worked out at 53.4 and the LogSel is given as 1.73. Moreover, in experiment [3], the “Efficacy (GABA)%” value was 70% and the “Fold increase h-GABA-A α2β2γ1 oocyte @ 30-fold Ki” value turned out to be 1.70.

For the compound `C[C@@H]1N=C(c2c(F)cccc2F)c2c(sc3c2C[C@@H](C(F)F)C3)-n2c(CO)cnc21` [Example 21, [(7S,13R)-13-(difluoromethyl)-9-(2,6-difluorophenyl)-7-methyl-16-thia-2,5,8-triazatetracyclo [8.6.0.02,6.011,15]hexadeca-1(10),3,5,8,11(15)-pentaen-3-yl]methanol], the pKi in experiment [1] was 8.53. Besides, in experiment [1] (setting [4]), the pKi is 8.53. Besides, in experiment [2], the pKi was 6.22, the “γ2/γ1 Selectivity Ratio” value came out at 127.6 and the LogSel is 2.11. Also, in experiment [3], the “Efficacy (GABA)%” value was 68% and the “Fold increase h-GABA-A α2β2γ1 oocyte @ 30-fold Ki” value came out at 1.68.
